The values that follow come from patent US9580423B2, “Bicyclic heterocycles as FGFR4 inhibitors” (Incyte Corporation, priority 2015, dated 2017).

Where two headings read alike, the source gives them in different places.

The target in one assay is FGFR3 (Homo sapiens (Human), UniProt P22607). Briefly: FGFR Enzymatic Assay (FRET peptide phosphorylation), FGFR3.
For another assay, the target named is FGFR4 (Homo sapiens (Human), UniProt P22455). As to the kind of experiment: FGFR Enzymatic Assay (FRET peptide phosphorylation), FGFR4. The settings on record: for FGFR1/FGFR4 IC50 ratio / FGFR2/FGFR4 IC50 ratio / FGFR3/FGFR4 IC50 ratio: IC50 ratio showing FGFR4 selectivity.
FGFR4, sequence (P22455 22-802): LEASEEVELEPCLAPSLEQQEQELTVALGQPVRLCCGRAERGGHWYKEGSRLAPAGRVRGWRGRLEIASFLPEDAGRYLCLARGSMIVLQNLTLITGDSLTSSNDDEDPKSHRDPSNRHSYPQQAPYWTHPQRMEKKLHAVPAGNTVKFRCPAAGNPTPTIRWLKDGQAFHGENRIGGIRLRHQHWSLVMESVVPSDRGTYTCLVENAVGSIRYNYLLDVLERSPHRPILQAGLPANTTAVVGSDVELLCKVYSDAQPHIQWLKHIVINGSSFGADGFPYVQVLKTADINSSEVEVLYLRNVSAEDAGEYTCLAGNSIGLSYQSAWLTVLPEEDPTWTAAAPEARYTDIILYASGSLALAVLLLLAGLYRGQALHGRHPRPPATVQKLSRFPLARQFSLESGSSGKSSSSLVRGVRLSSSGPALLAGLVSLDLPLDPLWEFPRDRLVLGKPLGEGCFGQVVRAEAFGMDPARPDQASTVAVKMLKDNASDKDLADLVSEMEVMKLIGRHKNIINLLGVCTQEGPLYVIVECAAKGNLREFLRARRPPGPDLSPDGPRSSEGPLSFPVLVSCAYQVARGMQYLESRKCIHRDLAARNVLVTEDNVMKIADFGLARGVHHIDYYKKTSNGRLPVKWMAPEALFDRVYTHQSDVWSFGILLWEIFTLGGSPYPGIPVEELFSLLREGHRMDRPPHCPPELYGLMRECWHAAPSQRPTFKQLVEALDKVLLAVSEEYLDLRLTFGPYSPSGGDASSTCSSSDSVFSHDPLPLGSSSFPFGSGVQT
Another assay addresses FGFR1 (Homo sapiens (Human), UniProt P11362). As to the kind of experiment: FGFR Enzymatic Assay (FRET peptide phosphorylation), FGFR1. The settings on record: read-out: FGFR1 IC50.
In a further assay the target is FGFR2 (Homo sapiens (Human), UniProt P21802). Briefly: FGFR Enzymatic Assay (FRET peptide phosphorylation), FGFR2.
FGFR2, sequence (P21802 22-821): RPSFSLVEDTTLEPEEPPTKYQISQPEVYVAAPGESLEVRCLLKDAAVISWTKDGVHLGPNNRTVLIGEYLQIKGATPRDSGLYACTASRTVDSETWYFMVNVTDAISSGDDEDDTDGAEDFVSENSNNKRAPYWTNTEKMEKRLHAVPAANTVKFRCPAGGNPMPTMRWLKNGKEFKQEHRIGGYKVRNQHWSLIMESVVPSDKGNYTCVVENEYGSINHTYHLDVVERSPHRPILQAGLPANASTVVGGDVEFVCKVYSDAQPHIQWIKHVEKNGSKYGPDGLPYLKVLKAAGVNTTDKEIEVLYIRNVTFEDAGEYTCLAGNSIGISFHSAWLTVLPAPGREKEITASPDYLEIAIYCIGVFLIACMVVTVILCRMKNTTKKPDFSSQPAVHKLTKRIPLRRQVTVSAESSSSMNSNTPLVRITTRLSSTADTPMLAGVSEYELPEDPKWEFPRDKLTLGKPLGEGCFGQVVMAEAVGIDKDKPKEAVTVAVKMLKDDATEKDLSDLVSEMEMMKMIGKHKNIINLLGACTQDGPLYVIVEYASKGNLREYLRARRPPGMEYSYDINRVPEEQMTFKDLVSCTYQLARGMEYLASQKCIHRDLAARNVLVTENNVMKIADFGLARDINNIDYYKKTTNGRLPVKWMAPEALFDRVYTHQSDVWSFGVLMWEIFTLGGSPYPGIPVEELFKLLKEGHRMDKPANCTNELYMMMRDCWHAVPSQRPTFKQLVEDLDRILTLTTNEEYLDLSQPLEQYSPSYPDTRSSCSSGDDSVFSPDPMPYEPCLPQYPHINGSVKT
Setting [1] is: FGFR3 IC50 (nM), pre-incubated for 5 to 10 minutes.
Where [2] appears, read: FGFR3 IC50 (nM), pre-incubated for 4 hours.
Setting [3] is: read-out: FGFR4 IC50, pre-incubated for 5 to 10 minutes.
The mark [4] stands for this setting: read-out: FGFR4 IC50, pre-incubated for 4 hours.
Where [5] appears, read: pre-incubated for 5 to 10 minutes.
The mark [6] stands for this setting: read-out: FGFR2 IC50, pre-incubated for 5 to 10 minutes.
Where [7] appears, read: read-out: FGFR2 IC50, pre-incubated for 4 hours.
[8] abbreviates: read-out: FGFR3 IC50, pre-incubated for 5 to 10 minutes.
[9] abbreviates: read-out: FGFR3 IC50, pre-incubated for 4 hours.

FGFR3, sequence (P22607 23-806): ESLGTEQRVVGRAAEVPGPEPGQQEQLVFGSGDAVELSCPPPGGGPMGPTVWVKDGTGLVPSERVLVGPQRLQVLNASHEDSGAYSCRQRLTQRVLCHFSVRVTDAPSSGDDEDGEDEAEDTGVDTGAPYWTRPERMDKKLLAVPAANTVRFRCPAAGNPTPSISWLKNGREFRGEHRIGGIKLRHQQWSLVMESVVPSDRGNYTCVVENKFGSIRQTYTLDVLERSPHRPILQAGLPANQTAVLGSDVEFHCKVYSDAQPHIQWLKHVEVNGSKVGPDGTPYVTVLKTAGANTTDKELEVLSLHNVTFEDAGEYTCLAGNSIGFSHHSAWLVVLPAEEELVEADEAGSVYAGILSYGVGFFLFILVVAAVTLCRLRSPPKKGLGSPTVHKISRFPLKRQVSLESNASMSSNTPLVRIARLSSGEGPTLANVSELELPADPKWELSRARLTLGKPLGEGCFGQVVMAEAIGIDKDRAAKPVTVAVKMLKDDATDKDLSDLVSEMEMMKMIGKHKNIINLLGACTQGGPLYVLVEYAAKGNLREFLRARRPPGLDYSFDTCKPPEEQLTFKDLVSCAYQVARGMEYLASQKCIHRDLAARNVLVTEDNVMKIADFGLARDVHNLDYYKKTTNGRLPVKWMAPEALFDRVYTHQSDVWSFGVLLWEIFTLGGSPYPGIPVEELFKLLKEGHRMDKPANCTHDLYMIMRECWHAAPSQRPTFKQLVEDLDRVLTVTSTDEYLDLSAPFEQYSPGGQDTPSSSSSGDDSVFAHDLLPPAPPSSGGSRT
FGFR1, sequence (P11362 22-822): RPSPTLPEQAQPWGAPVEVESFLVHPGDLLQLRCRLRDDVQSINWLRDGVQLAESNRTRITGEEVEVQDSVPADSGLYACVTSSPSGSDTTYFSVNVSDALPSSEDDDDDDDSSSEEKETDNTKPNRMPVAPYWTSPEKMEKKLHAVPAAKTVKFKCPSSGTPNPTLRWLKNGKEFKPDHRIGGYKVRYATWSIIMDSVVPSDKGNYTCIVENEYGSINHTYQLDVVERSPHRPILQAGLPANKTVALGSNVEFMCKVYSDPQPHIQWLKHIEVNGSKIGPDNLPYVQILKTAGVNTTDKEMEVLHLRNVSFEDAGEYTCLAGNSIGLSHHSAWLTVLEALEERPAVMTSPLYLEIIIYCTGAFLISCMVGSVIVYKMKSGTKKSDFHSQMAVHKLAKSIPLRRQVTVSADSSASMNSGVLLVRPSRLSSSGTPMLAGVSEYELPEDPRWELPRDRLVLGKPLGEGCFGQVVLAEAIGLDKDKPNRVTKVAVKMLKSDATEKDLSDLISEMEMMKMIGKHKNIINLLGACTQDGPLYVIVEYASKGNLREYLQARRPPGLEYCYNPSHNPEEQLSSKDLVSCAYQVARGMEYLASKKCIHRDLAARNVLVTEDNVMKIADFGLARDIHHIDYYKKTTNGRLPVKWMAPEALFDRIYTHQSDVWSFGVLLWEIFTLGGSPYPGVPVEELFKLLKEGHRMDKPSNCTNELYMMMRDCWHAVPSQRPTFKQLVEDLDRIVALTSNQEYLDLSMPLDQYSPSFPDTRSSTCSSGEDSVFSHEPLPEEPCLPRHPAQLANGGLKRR
Source text for FGFR1: (§1) The enzymes were purchased from Millipore or Invitrogen.
(§2) GraphPad prism3 was used to analyze the data. The IC50 values were derived by fitting the data to the equation for a sigmoidal dose-response with a variable slope. Y=Bottom+(Top-Bottom)/(1+10^((LogIC50−X)*HillSlope)) where X is the logarithm of concentration and Y is the response.
Source text for FGFR2: as §1, §2
Source text for FGFR3: as §1, §2
Source text for FGFR4: as §1, §2

What is called IC50 is the concentration at which inhibition is half-maximal. As to `C=CC(=O)Nc1cccc(-c2cc3c(cn2)CN(c2c(F)c(OC)cc(OC)c2F)C(=O)C32CC2)c1` [Example 1, N-{3-[2′-(2,6-difluoro-3,5-dimethoxyphenyl)-3′-oxo-2′,3′-dihydro-1′H-spiro[cyclopropane-1,4′-[2,7]naphthyridin]-6′-yl]phenyl}acrylamide], the 50% inhibitory concentration (IC50) at FGFR3 (setting [1]) was 10 to 30 nM; on FGFR3 (setting [2]), 10 to 30 nM; at FGFR4 (setting [3]) it was < 10 nM; on FGFR4 (setting [4]), < 10 nM.

In the case of `C=CC(=O)Nc1ccc(C)c(-c2cc3c(cn2)CN(c2c(F)c(OC)cc(OC)c2F)C(=O)C32CC2)c1` [Example 2, N-(3-(2′-(2,6-difluoro-3,5-dimethoxyphenyl)-3′-oxo-2′,3′-dihydro-1′H-spiro[cyclopropane-1,4′-[2,7]naphthyridine]-6′-yl)-4-methylphenyl)acrylamide], the IC50 on FGFR1 (setting [5]), at FGFR1 (pre-incubated for 4 hours), on FGFR2 (setting [6]), on FGFR2 (setting [7]), at FGFR3 (setting [8]) and on FGFR3 (setting [9]) was > 200 nM throughout. The IC50 at FGFR4 (setting [3]) and on FGFR4 (setting [4]) was < 10 nM in each case. For the same compound, the “FGFR1/FGFR4 IC50 ratio” value at FGFR4 (setting [5]) and on FGFR4 (pre-incubated for 4 hours) was >100 each time. For the same compound, the “FGFR2/FGFR4 IC50 ratio” value on FGFR4 (setting [5]) and on FGFR4 (pre-incubated for 4 hours) was >100 throughout. The “FGFR3/FGFR4 IC50 ratio” value on FGFR4 (setting [5]) and on FGFR4 (pre-incubated for 4 hours) was >100 in each case.

With `C=CC(=O)Nc1cncc(-c2cc3c(cn2)CN(c2c(F)c(OC)cc(OC)c2F)C(=O)C32CC2)c1` [Example 3, N-(5-(2′-(2,6-difluoro-3,5-dimethoxyphenyl)-3′-oxo-2′,3′-dihydro-1′H-spiro[cyclopropane-1,4′-[2,7]naphthyridine]-6′-yl)pyridin-3-yl)acrylamide], the IC50 on FGFR2 was 30 to 200 nM; on FGFR2 (setting [6]), 30 to 200 nM; at FGFR3 (setting [1]), 30 to 200 nM; against FGFR3 (setting [2]), 30 to 200 nM; on FGFR4 (setting [3]), < 10 nM; at FGFR4 (setting [4]) it was < 10 nM.

In the case of `C=CC(=O)Nc1cc(-c2cc3c(cn2)CN(c2c(F)c(OC)cc(OC)c2F)C(=O)C32CC2)ccn1` [Example 4, N-(4-(2′-(2,6-difluoro-3,5-dimethoxyphenyl)-3′-oxo-2′,3′-dihydro-1′H-spiro[cyclopropane-1,4′-[2,7]naphthyridine]-6′-yl)pyridin-2-yl)acrylamide], the IC50 against FGFR3 (setting [1]) and against FGFR3 (setting [2]) was 10 to 30 nM each time.

With `C=CC(=O)Nc1ccc(C#N)c(-c2cc3c(cn2)CN(c2c(F)c(OC)cc(OC)c2F)C(=O)C32CC2)c1` [Example 5, N-(4-cyano-3-(2′-(2,6-difluoro-3,5-dimethoxyphenyl)-3′-oxo-2′,3′-dihydro-1′H-spiro[cyclopropane-1,4′-[2,7]naphthyridine]-6′-yl)phenyl)acrylamide], the IC50 at FGFR1 (setting [5]), on FGFR1 (pre-incubated for 4 hours), on FGFR2 (setting [6]), on FGFR2 (setting [7]), on FGFR3 (setting [8]) and at FGFR3 (setting [9]) was > 200 nM each time. In addition, the IC50 at FGFR4 (setting [3]) and on FGFR4 (setting [4]) was < 10 nM each time. In addition, the “FGFR1/FGFR4 IC50 ratio” value on FGFR4 (setting [5]) and on FGFR4 (pre-incubated for 4 hours) was >100 throughout. For the same compound, the “FGFR2/FGFR4 IC50 ratio” value at FGFR4 (setting [5]) and at FGFR4 (pre-incubated for 4 hours) was >100 in each case. Moreover, the “FGFR3/FGFR4 IC50 ratio” value on FGFR4 (setting [5]) and on FGFR4 (pre-incubated for 4 hours) was >100 throughout.

`C=CC(=O)Nc1cc(-c2cc3c(cn2)CN(c2c(F)c(OC)cc(OC)c2F)C(=O)C32CC2)c(C)cc1F` [Example 6, N-(5-(2′-(2,6-difluoro-3,5-dimethoxyphenyl)-3′-oxo-2′,3′-dihydro-1′H-spiro[cyclopropane-1,4′-[2,7]naphthyridine]-6′-yl)-2-fluoro-4-methylphenyl)acrylamide]: the IC50 at FGFR1 (setting [5]), at FGFR1 (pre-incubated for 4 hours), on FGFR2 (setting [6]), at FGFR2 (setting [7]), on FGFR3 (setting [8]) and on FGFR3 (setting [9]) was > 200 nM in each case. Besides, the IC50 on FGFR4 (setting [3]) and at FGFR4 (setting [4]) was < 10 nM each time. Also, the “FGFR1/FGFR4 IC50 ratio” value on FGFR4 (setting [5]) and at FGFR4 (pre-incubated for 4 hours) was >100 each time. Further, the “FGFR2/FGFR4 IC50 ratio” value at FGFR4 (setting [5]) and at FGFR4 (pre-incubated for 4 hours) was >100 in each case. For the same compound, the “FGFR3/FGFR4 IC50 ratio” value on FGFR4 (setting [5]) and at FGFR4 (pre-incubated for 4 hours) was >100 each time.

Regarding `C=CC(=O)Nc1cnc(C)c(-c2cc3c(cn2)CN(c2c(F)c(OC)cc(OC)c2F)C(=O)C32CC2)c1` [Example 7, N-(5-(2′-(2,6-difluoro-3,5-dimethoxyphenyl)-3′-oxo-2′,3′-dihydro-1′H-spiro[cyclopropane-1,4′-[2,7]naphthyridine]-6′-yl)-6-methylpyridin-3-yl)acrylamide], the IC50 at FGFR1 (setting [5]), on FGFR1 (pre-incubated for 4 hours), on FGFR2 (setting [6]), on FGFR2 (setting [7]), on FGFR3 (setting [8]) and at FGFR3 (setting [9]) was > 200 nM in each case. In addition, the IC50 at FGFR4 (setting [3]) and at FGFR4 (setting [4]) was < 10 nM in each case. The “FGFR1/FGFR4 IC50 ratio” value at FGFR4 (setting [5]) and on FGFR4 (pre-incubated for 4 hours) was >100 in each case. Moreover, the “FGFR2/FGFR4 IC50 ratio” value at FGFR4 (setting [5]) and at FGFR4 (pre-incubated for 4 hours) was >100 each time. The “FGFR3/FGFR4 IC50 ratio” value at FGFR4 (setting [5]) and at FGFR4 (pre-incubated for 4 hours) was >100 each time.

`C=CC(=O)N1CCCC(c2cc3c(cn2)CN(c2c(F)c(OC)cc(OC)c2F)C(=O)C32CC2)C1` (stereo not drawn) [Example 8, 6′-(1-acryloylpiperidin-3-yl)-2′-(2,6-difluoro-3,5-dimethoxyphenyl)-1′H-spiro[cyclopropane-1,4′-[2,7]naphthyridin]-3′(2′H)-one]: the IC50 at FGFR1 (setting [5]), at FGFR1 (pre-incubated for 4 hours), on FGFR2 (setting [6]), on FGFR2 (setting [7]), at FGFR3 (setting [8]) and on FGFR3 (setting [9]) was > 200 nM in each case. Further, the IC50 is 30 to 200 nM at FGFR4 and > 200 nM at FGFR4 (setting [3]). For the same compound, the “FGFR1/FGFR4 IC50 ratio” value at FGFR4 (setting [5]) is >5; at FGFR4 (pre-incubated for 4 hours), >10. Also, the results for the “FGFR2/FGFR4 IC50 ratio” value on FGFR4 (setting [5]) and on FGFR4 (pre-incubated for 4 hours) were >1 and >2, respectively. The “FGFR3/FGFR4 IC50 ratio” value was >1 at FGFR4 (setting [5]) and >2 on FGFR4 (pre-incubated for 4 hours).

For the compound `C=CC(=O)N(C)c1cccc(-c2cc3c(cn2)CN(c2c(F)c(OC)cc(OC)c2F)C(=O)C32CC2)c1` [Example 9, N-(3-(2′-(2,6-difluoro-3,5-dimethoxyphenyl)-3′-oxo-2′,3′-dihydro-1′H-spiro[cyclopropane-1,4′-[2,7]naphthyridine]-6′-yl)phenyl)-N-methylacrylamide], the IC50 was 30 to 200 nM against FGFR2; 30 to 200 nM at FGFR2 (setting [6]); 10 to 30 nM at FGFR3 (setting [1]); 10 to 30 nM at FGFR3 (setting [2]); < 10 nM on FGFR4 (setting [3]); < 10 nM on FGFR4 (setting [4]).

As for `C=CC(=O)Nc1cc(-c2cc3c(cn2)CN(c2c(F)c(OC)cc(OC)c2F)C(=O)C32CC2)cc(N2CCOCC2)c1` [Example 10, N-{3-[2′-(2,6-difluoro-3,5-dimethoxyphenyl)-3′-oxo-2′,3′-dihydro-1′H-spiro[cyclopropane-1,4′-[2,7]naphthyridin]-6′-yl]-5-morpholin-4-ylphenyl}acrylamide], the IC50 on FGFR1 (setting [5]), on FGFR1 (pre-incubated for 4 hours), on FGFR2 (setting [6]), on FGFR2 (setting [7]), at FGFR3 (setting [8]) and at FGFR3 (setting [9]) was > 200 nM in each case. Besides, the IC50 at FGFR4 (setting [3]) and at FGFR4 (setting [4]) was < 10 nM throughout. For the same compound, the “FGFR1/FGFR4 IC50 ratio” value at FGFR4 (setting [5]) and at FGFR4 (pre-incubated for 4 hours) was >100 in each case. In addition, the “FGFR2/FGFR4 IC50 ratio” value at FGFR4 (setting [5]) and at FGFR4 (pre-incubated for 4 hours) was >100 in each case. Further, the “FGFR3/FGFR4 IC50 ratio” value on FGFR4 (setting [5]) and at FGFR4 (pre-incubated for 4 hours) was >100 throughout.

As to `C=CC(=O)Nc1cc(-c2cc3c(cn2)CN(c2c(F)c(OC)cc(OC)c2F)C(=O)C32CC2)ccc1CO` [Example 13, N-(5-(2′-(2,6-difluoro-3,5-dimethoxyphenyl)-3′-oxo-2′,3′-dihydro-1′H-spiro[cyclopropane-1,4′-[2,7]naphthyridine]-6′-yl)-2-(hydroxymethyl)phenyl)acrylamide], the IC50 against FGFR2 was 30 to 200 nM; on FGFR2 (setting [6]), 30 to 200 nM; against FGFR3 (setting [1]) it was 30 to 200 nM; against FGFR3 (setting [2]), 30 to 200 nM; at FGFR4 (setting [3]), < 10 nM; at FGFR4 (setting [4]) it was < 10 nM.

As for `C=CC(=O)Nc1cnn(CC(=O)NC)c1-c1cc2c(cn1)CN(c1c(F)c(OC)cc(OC)c1F)C(=O)C21CC1` [Example 20, N-(5-(2′-(2,6-difluoro-3,5-dimethoxyphenyl)-3′-oxo-2′,3′-dihydro-1′H-spiro[cyclopropane-l,4′[2,7]naphthyridine]-6′-yl)-1-(2-(methylamino)-2-oxoethyl)-1H-pyrazol-4-yl)acrylamide], at FGFR4 (pre-incubated for 4 hours), the “FGFR1/FGFR4 IC50 ratio” value is >50, the “FGFR2/FGFR4 IC50 ratio” value is listed as >100 and the “FGFR3/FGFR4 IC50 ratio” value is recorded as >100.
